Results from ChEMBL document CHEMBL1129860, “Studies on penam sulfones III. Synthesis and -lactamase inhibitory activity of sodium (6R)-6-(-hydroxybenzyl)-2-methoxyiminomethyl-2-methylpenam-3-carboxylate 1,1-dioxide and sodium 2-acyl-2-methylpenam-3-carboxylate 1,1-dioxide” (1997).
≈ marks a conversion by molar mass, not a printed value.

Legend:
Format in all cases: functional
Citrobacter freundii [1] = assay: In vitro minimal inhibitory concentration (MIC) of compound in combination with piperacillin (PIPC) showed synergic activity against Citrobacter freundii 2046E
Citrobacter freundii [2] = assay: In vitro minimal inhibitory concentration (MIC) of compound in combination with piperacillin (PIPC) showed synergic activity against Citrobacter freundii 44032
Escherichia coli [3] = assay: In vitro minimal inhibitory concentration (MIC) of compound in combination with piperacillin (PIPC) showed synergic activity against Escherichia coli TEM 3
Klebsiella aerogenes [4] = assay: In vitro minimal inhibitory concentration (MIC) of compound in combination with piperacillin (PIPC) showed synergic activity against Enterobacter aerogenes 41003
Klebsiella aerogenes [5] = assay: In vitro minimal inhibitory concentration (MIC) of compound in combination with piperacillin (PIPC) showed synergic activity against Enterobacter aerogenes 41004
Enterobacter cloacae [6] = assay: In vitro minimal inhibitory concentration (MIC) of compound in combination with piperacillin (PIPC) showed synergic activity against Enterobacter cloacae 40011
Enterobacter cloacae [7] = assay: In vitro minimal inhibitory concentration (MIC) of compound in combination with piperacillin (PIPC) showed synergic activity against Enterobacter cloacae 40015
Enterobacter cloacae [8] = assay: In vitro minimal inhibitory concentration (MIC) of compound in combination with piperacillin (PIPC) showed synergic activity against Enterobacter cloacae P99
Escherichia coli [9] = assay: In vitro minimal inhibitory concentration (MIC) of compound in combination with piperacillin (PIPC) showed synergic activity against Escherichia coli SHV 5
Escherichia coli [10] = assay: In vitro minimal inhibitory concentration (MIC) of compound in combination with piperacillin (PIPC) showed synergic activity against Escherichia coli TEM 7
Escherichia coli [11] = assay: In vitro minimal inhibitory concentration (MIC) of compound in combination with piperacillin (PIPC) showed synergic activity against Escherichia coli OXA 1
Escherichia coli [12] = assay: In vitro minimal inhibitory concentration (MIC) of compound in combination with piperacillin (PIPC) showed synergic activity against Escherichia coli SHV 1
Klebsiella pneumoniae [13] = assay: In vitro minimal inhibitory concentration (MIC) of compound in combination with piperacillin (PIPC) showed synergic activity against Klebsiella pneumoniae CTX 1
Morganella morganii [14] = assay: In vitro minimal inhibitory concentration (MIC) of compound in combination with piperacillin (PIPC) showed synergic activity against Morganella morganii 36014
Pseudomonas aeruginosa [15] = assay: In vitro minimal inhibitory concentration (MIC) of compound in combination with piperacillin (PIPC) showed synergic activity against Pseudomonas aeruginosa 46220 (DR-2)
Proteus vulgaris [16] = assay: In vitro minimal inhibitory concentration (MIC) of compound in combination with piperacillin (PIPC) showed synergic activity against Proteus vulgaris CT 106
Staphylococcus aureus [17] = assay: In vitro minimal inhibitory concentration (MIC) of compound in combination with piperacillin (PIPC) showed synergic activity against Staphylococcus aureus 80K
Escherichia coli [18] = assay: In vitro minimal inhibitory concentration (MIC) of compound in combination with piperacillin (PIPC) showed synergic activity against Escherichia coli OXA 3
Serratia marcescens [19] = assay: In vitro minimal inhibitory concentration (MIC) of compound in combination with piperacillin (PIPC) showed synergic activity against Serratia marcescens 200 L
Klebsiella aerogenes [20] = assay: In vitro minimal inhibitory concentration (MIC) of compound in combination with piperacillin (PIPC) showed synergic activity against Enterobacter aerogenes 41006
Staphylococcus aureus [21] = assay: In vitro minimal inhibitory concentration (MIC) of compound in combination with piperacillin (PIPC) showed synergic activity against Staphylococcus aureus 54K
Citrobacter freundii [22] = assay: In vitro minimal inhibitory concentration (MIC) of compound against Citrobacter freundii 44032
Klebsiella aerogenes [23] = assay: In vitro minimal inhibitory concentration (MIC) of compound against Enterobacter aerogenes 41003
Klebsiella aerogenes [24] = assay: In vitro minimal inhibitory concentration (MIC) of compound against Enterobacter aerogenes 41004
Klebsiella aerogenes [25] = assay: In vitro minimal inhibitory concentration (MIC) of compound against Enterobacter aerogenes 41006
Klebsiella aerogenes [26] = assay: In vitro minimal inhibitory concentration (MIC) of compound against Enterobacter aerogenes S-97
Enterobacter cloacae [27] = assay: In vitro minimal inhibitory concentration (MIC) of compound against Enterobacter cloacae 40011
Enterobacter cloacae [28] = assay: In vitro minimal inhibitory concentration (MIC) of compound against Enterobacter cloacae E40002
Enterobacter cloacae [29] = assay: In vitro minimal inhibitory concentration (MIC) of compound against Enterobacter cloacae P99
Enterobacter cloacae [30] = assay: In vitro minimal inhibitory concentration (MIC) of compound against Enterobacter cloacae S-11
Enterobacter cloacae [31] = assay: In vitro minimal inhibitory concentration (MIC) of compound against Enterobacter cloacae S-65
Escherichia coli [32] = assay: In vitro minimal inhibitory concentration (MIC) of compound against Escherichia coli TEM 3
Escherichia coli [33] = assay: In vitro minimal inhibitory concentration (MIC) of compound against Escherichia coli TEM 7
Klebsiella pneumoniae [34] = assay: In vitro minimal inhibitory concentration (MIC) of compound against Klebsiella pneumoniae CTX 1
Morganella morganii [35] = assay: In vitro minimal inhibitory concentration (MIC) of compound against Morganella morganii 36014
Morganella morganii [36] = assay: In vitro minimal inhibitory concentration (MIC) of compound against Morganella morganii 36030
Pseudomonas aeruginosa [37] = assay: In vitro minimal inhibitory concentration (MIC) of compound against Pseudomonas aeruginosa 46220 (DR-2)
Pseudomonas aeruginosa [38] = assay: In vitro minimal inhibitory concentration (MIC) of compound against Pseudomonas aeruginosa CT-122
Pseudomonas aeruginosa [39] = assay: In vitro minimal inhibitory concentration (MIC) of compound against Pseudomonas aeruginosa CT-137
Proteus vulgaris [40] = assay: In vitro minimal inhibitory concentration (MIC) of compound against Proteus vulgaris CT 106
Citrobacter freundii [41] = assay: In vitro minimal inhibitory concentration (MIC) of compound against Citrobacter freundii CT 76
Citrobacter freundii [42] = assay: In vitro minimal inhibitory concentration of compound against Citrobacter freundii 2046E
Citrobacter freundii [43] = assay: In vitro minimal inhibitory concentration of compound against Citrobacter freundii 44032
Escherichia coli [44] = assay: In vitro minimal inhibitory concentration of compound against Escherichia coli OXA 1
Escherichia coli [45] = assay: In vitro minimal inhibitory concentration of compound against Escherichia coli OXA 3
Escherichia coli [46] = assay: In vitro minimal inhibitory concentration of compound against Escherichia coli SHV 1
Escherichia coli [47] = assay: In vitro minimal inhibitory concentration of compound against Escherichia coli SHV 5
Escherichia coli [48] = assay: In vitro minimal inhibitory concentration of compound against Escherichia coli TEM 3
Escherichia coli [49] = assay: In vitro minimal inhibitory concentration of compound against Escherichia coli TEM 7
Klebsiella aerogenes [50] = assay: In vitro minimal inhibitory concentration of compound against Enterobacter aerogenes 41003
Klebsiella aerogenes [51] = assay: In vitro minimal inhibitory concentration of compound against Enterobacter aerogenes 41004
Klebsiella aerogenes [52] = assay: In vitro minimal inhibitory concentration of compound against Enterobacter aerogenes 41006
Enterobacter cloacae [53] = assay: In vitro minimal inhibitory concentration of compound against Enterobacter cloacae 40011
Enterobacter cloacae [54] = assay: In vitro minimal inhibitory concentration of compound against Enterobacter cloacae 40015
Enterobacter cloacae [55] = assay: In vitro minimal inhibitory concentration of compound against Enterobacter cloacae P99
Klebsiella pneumoniae [56] = assay: In vitro minimal inhibitory concentration of compound against Klebsiella pneumoniae CTX 1
Morganella morganii [57] = assay: In vitro minimal inhibitory concentration of compound against Morganella morganii 36014
Pseudomonas aeruginosa [58] = assay: In vitro minimal inhibitory concentration of compound against Pseudomonas aeruginosa 46220 (DR-2)
Proteus vulgaris [59] = assay: In vitro minimal inhibitory concentration of compound against Proteus vulgaris CT 106
Serratia marcescens [60] = assay: In vitro minimal inhibitory concentration of compound against Serratia marcescens 200 L
Staphylococcus aureus [61] = assay: In vitro minimal inhibitory concentration of compound against Staphylococcus aureus 80K
Staphylococcus aureus [62] = assay: In vitro minimal inhibitory concentration of compound against Staphylococcus aureus 54K

## CCN1CCN(C(=O)NC(C(=O)N[C@@H]2C(=O)N3[C@@H]2SC(C)(C)[C@@H]3C(=O)O)c2ccccc2)C(=O)C1=O.C[C@]1(Cn2ccnn2)[C@H](C(=O)[O-])N2C(=O)CC2S1(=O)=O.[Na+] (some centres undefined)
Citrobacter freundii [1]
  MIC: 0.78 µg/mL
Citrobacter freundii [2]
  MIC: 200 µg/mL
Escherichia coli [3]
  MIC: 3.13 µg/mL
Klebsiella aerogenes [4]
  MIC: 12.5 µg/mL
Klebsiella aerogenes [5]
  MIC: 12.5 µg/mL
Enterobacter cloacae [6]
  MIC: 6.25 µg/mL
Enterobacter cloacae [7]
  MIC: 50 µg/mL
Enterobacter cloacae [8]
  MIC: 25 µg/mL
Escherichia coli [9]
  MIC: ≤ 0.2 µg/mL
Escherichia coli [10]
  MIC: 0.78 µg/mL
Escherichia coli [11]
  MIC: 3.13 µg/mL
Escherichia coli [12]
  MIC: 1.56 µg/mL
Klebsiella pneumoniae [13]
  MIC: 6.25 µg/mL
Morganella morganii [14]
  MIC: ≤ 0.2 µg/mL
Pseudomonas aeruginosa [15]
  MIC: 12.5 µg/mL
Proteus vulgaris [16]
  MIC: 1.56 µg/mL
Staphylococcus aureus [17]
  MIC: 0.39 µg/mL
Escherichia coli [18]
  MIC: 1.56 µg/mL
Serratia marcescens [19]
  MIC: 0.78 µg/mL
Klebsiella aerogenes [20]
  MIC: 100 µg/mL
Staphylococcus aureus [21]
  MIC: 0.78 µg/mL

## CC(C)(O/N=C(\C(=O)N[C@@H]1C(=O)N2C(C(=O)[O-])=C(C[n+]3ccccc3)CS[C@H]12)c1csc(N)n1)C(=O)O [CEFTAZIDIME]
Citrobacter freundii [22]
  MIC: 400 µg/mL (≈ 732 µM)
Klebsiella aerogenes [23]
  MIC: 12.5 µg/mL (≈ 22.9 µM)
Klebsiella aerogenes [24]
  MIC: 12.5 µg/mL (≈ 22.9 µM)
Klebsiella aerogenes [25]
  MIC: 200 µg/mL (≈ 366 µM)
Klebsiella aerogenes [26]
  MIC: 8 µg/mL (≈ 14.6 µM)
Enterobacter cloacae [27]
  MIC: 25 µg/mL (≈ 45.7 µM)
Enterobacter cloacae [28]
  MIC: 200 µg/mL (≈ 366 µM)
Enterobacter cloacae [29]
  MIC: 100 µg/mL (≈ 183 µM)
Enterobacter cloacae [30]
  MIC: 2 µg/mL (≈ 3.66 µM)
Enterobacter cloacae [31]
  MIC: 2 µg/mL (≈ 3.66 µM)
Escherichia coli [32]
  MIC: 25 µg/mL (≈ 45.7 µM)
Escherichia coli [33]
  MIC: 12.5 µg/mL (≈ 22.9 µM)
Klebsiella pneumoniae [34]
  MIC: 100 µg/mL (≈ 183 µM)
Morganella morganii [35]
  MIC: 25 µg/mL (≈ 45.7 µM)
Morganella morganii [35]; Morganella morganii, read-out: MIC
  MIC: > 32 µg/mL
Morganella morganii [36]
  MIC: > 32 µg/mL
Pseudomonas aeruginosa [37]
  MIC: 25 µg/mL (≈ 45.7 µM)
Pseudomonas aeruginosa [38]
  MIC: 32 µg/mL (≈ 58.5 µM)
Pseudomonas aeruginosa [39]
  MIC: 16 µg/mL (≈ 29.3 µM)
Proteus vulgaris [40]
  MIC: 12.5 µg/mL (≈ 22.9 µM)
Citrobacter freundii [41]
  MIC: 50 µg/mL (≈ 91.5 µM)

## CC(=O)[C@@]1(C)[C@H](C(=O)[O-])N2C(=O)CC2S1(=O)=O.CCN1CCN(C(=O)NC(C(=O)N[C@@H]2C(=O)N3[C@@H]2SC(C)(C)[C@@H]3C(=O)O)c2ccccc2)C(=O)C1=O.[Na+] (some centres undefined)
Citrobacter freundii [1]
  MIC: 1.56 µg/mL
Citrobacter freundii [2]
  MIC: 12.5 µg/mL
Escherichia coli [3]
  MIC: 3.13 µg/mL
Klebsiella aerogenes [4]
  MIC: 3.13 µg/mL
Klebsiella aerogenes [5]
  MIC: 6.25 µg/mL
Enterobacter cloacae [6]
  MIC: 6.25 µg/mL
Enterobacter cloacae [7]
  MIC: 25 µg/mL
Enterobacter cloacae [8]
  MIC: 12.5 µg/mL
Escherichia coli [9]
  MIC: 1.56 µg/mL
Escherichia coli [10]
  MIC: 1.56 µg/mL
Escherichia coli [11]
  MIC: 1.56 µg/mL
Escherichia coli [12]
  MIC: 3.13 µg/mL
Klebsiella pneumoniae [13]
  MIC: 12.5 µg/mL
Morganella morganii [14]
  MIC: 0.39 µg/mL
Pseudomonas aeruginosa [15]
  MIC: 6.25 µg/mL
Proteus vulgaris [16]
  MIC: 25 µg/mL
Staphylococcus aureus [17]
  MIC: 3.13 µg/mL
Escherichia coli [18]
  MIC: 1.56 µg/mL
Serratia marcescens [19]
  MIC: 3.13 µg/mL
Klebsiella aerogenes [20]
  MIC: 12.5 µg/mL
Staphylococcus aureus [21]
  MIC: 6.26 µg/mL

## CCN1CCN(C(=O)N[C@@H](C(=O)N[C@@H]2C(=O)N3[C@@H]2SC(C)(C)[C@@H]3C(=O)O)c2ccccc2)C(=O)C1=O [PIPERACILLIN]
Citrobacter freundii [42]
  MIC: > 400 µg/mL
Citrobacter freundii [43]
  MIC: 200 µg/mL (≈ 386 µM)
Escherichia coli [44]
  MIC: 25 µg/mL (≈ 48.3 µM)
Escherichia coli [45]
  MIC: 3.13 µg/mL (≈ 6.05 µM)
Escherichia coli [46]
  MIC: > 400 µg/mL
Escherichia coli [47]
  MIC: 200 µg/mL (≈ 386 µM)
Escherichia coli [48]
  MIC: 200 µg/mL (≈ 386 µM)
Escherichia coli [49]
  MIC: > 400 µg/mL
Klebsiella aerogenes [50]
  MIC: 12.5 µg/mL (≈ 24.2 µM)
Klebsiella aerogenes [51]
  MIC: 12.5 µg/mL (≈ 24.2 µM)
Klebsiella aerogenes [52]
  MIC: 100 µg/mL (≈ 193 µM)
Enterobacter cloacae [53]
  MIC: 50 µg/mL (≈ 96.6 µM)
Enterobacter cloacae [54]
  MIC: 100 µg/mL (≈ 193 µM)
Enterobacter cloacae [55]
  MIC: 100 µg/mL (≈ 193 µM)
Klebsiella pneumoniae [56]
  MIC: > 400 µg/mL
Morganella morganii [57]
  MIC: 50 µg/mL (≈ 96.6 µM)
Pseudomonas aeruginosa [58]
  MIC: 100 µg/mL (≈ 193 µM)
Proteus vulgaris [59]
  MIC: 200 µg/mL (≈ 386 µM)
Serratia marcescens [60]
  MIC: 200 µg/mL (≈ 386 µM)
Staphylococcus aureus [61]
  MIC: 50 µg/mL (≈ 96.6 µM)
Staphylococcus aureus [62]
  MIC: 200 µg/mL (≈ 386 µM)
